Entries after “also recorded” stand apart in the source; their conditions may differ. Read-outs that look alike come from different tables or passages of the source. Each block holds one molecule with its values, some of them ahead of it.
Key:
human LYPLA1 = target: T1, human LYPLA1 (Homo sapiens, UniProt O75608); test: IC50 by gel-based competitive ABPP in vitro, soluble HeLa cell proteome; type: biochemical
T1 construct: endogenous human LYPLA1/2 in a HeLa soluble proteome; endogenous in cells; host or cells: HeLa (soluble proteome in vitro; cultured cells in situ)
Protocol: (§1) Assay Overview: The purpose of this assay was to determine IC50 values of powder samples of test compounds for enzyme of interest activity, and anti-targets in a complex proteomic lysate using a gel-based competitive ABPP assay. In this assay, a complex proteome was incubated with test compound followed by reaction with FP-Rh and SDS-PAGE analysis as described above.
(§2) Protocol Summary: Soluble HeLa cell proteome (50 μL reaction volume, 1 mg/mL in DPBS) or mouse brain membrane proteome (50 μL reaction volume, 1 mg/mL in DPBS) was treated with varying concentrations of test compound (1 μL of a 50× stock in DMSO) for 30 minutes at 37° C. FP-Rh (1 μL of 50× stock in DMSO) was added to a final concentration of 2 μM. The reaction was incubated for 30 minutes at 25° C., quenched with 16 μL 4×SDS-PAGE loading buffer (reducing), separated by SDS-PAGE and visualized by in-gel fluorescent scanning. The percentage activity remaining was determined by measuring the integrated optical density of the enzymes of interest, and anti-target bands relative to a DMSO-only (no compound) control. IC50 values were determined from dose-response curves from three replicates at each inhibitor concentration: 1, 10, 100, 1000, 10000 nM and 0.01, 0.1, 1, 10, 100, 1000, 10000, 50000, and 100000 nM.

human LYPLA2 = target: T2, human LYPLA2 (Homo sapiens, UniProt O95372); test: as above; type: biochemical
T2 construct: endogenous human LYPLA1/2 in a HeLa soluble proteome; endogenous in cells; host or cells: HeLa (soluble proteome in vitro; cultured cells in situ)
Protocol: as §1, §2

[1] = test system: serine hydrolases in PC3 cells; test: ABPP-SILAC, PC3 cells treated in situ, other SH targets; type: cell-based, human; conditions: 4 h in situ
Protocol: (§3) In situ inhibitor treatments of human cell lines were performed as described previously (Hsu et al., J Med Chem 56, 8270-8279, 2012). Briefly, PC3 or transfected HEK293T cells were grown to confluency in serum-containing media (RPMI or DMEM, respectively). The culture media was then removed and replaced with fresh media containing DMSO or inhibitor at the desired concentration and incubated for 4 hours in a tissue culture incubator (37° C., 5% CO2). Cells were then washed with PBS, harvested, washed with PBS once more, and lysed with a probe sonicator.
(§4) The activity and selectivity of dual ABHD3/4 and ABHD4-preferring inhibitors in PC3 cells by ABPP-SILAC was assessed. Isotopically heavy and light PC3 cells were treated in situ with inhibitor (Compound 37 (1 μM) or Compound 38 (0.5 μM)) or DMSO for 4 h and then lysed and processed for ABPP-SILAC analysis.
Isotopically heavy- and light-labeled PC3 cells were treated with Compound 37 (1 μM) or DMSO for 4 h, respectively, lysed, and then treated Compound 39 (5 μM, 1 h). […] Among the handful of additional SH targets of Compound 37 were ABHD6 and PLA2G7, which were expected based on our ABPP-SILAC studies with FP-biotin (see FIG. 9), and protein-palmitoyl thioesterase 1 (PPT1), which was inhibited by more than 90%. […] Accordingly, PPT1 was not detected in our previous ABPP-SILAC studies with FP-biotin (see FIG. 9). The selective enrichment of PPT1 by Compound 39 was confirmed by performing a probe-versus-probe ABPP-SILAC study, where heavy and light PC3 proteomes were treated with FP-biotin (2.5 μM, 1 h) and Compound 39 (5 μM, 1 h), respectively. PPT1, along with two additional SHs LIPA and DDHD2, were preferentially enriched by Compound 39 over FP-biotin, while most of the other SHs were more strongly enriched by FP-biotin (see FIG. 13). A handful of SHs corresponding mostly to enzymes that were identified in our ABPP-SILAC studies as targets of Compound 37 (see FIGS. 9 and 12), were equivalently enriched by Compound 39 and FP-biotin (see FIG. 13).
(§5) To evaluate the broader selectivity of Compound 26 and Compound 34 across the SH class, heavy and light isotopically-labeled PC3 cells were treated with inhibitor [Compound 34 (1 μM); or Compound 26 (1 or 0.1 μM); 4 h) and DMSO, respectively, followed by ABPP-SILAC analysis with either the FP-biotin probe or the Compound 39 probe. […] Conversely, Compound 34 inhibited >90% of ABHD4 activity, as measured with either the FP-biotin probe or the Compound 39 probe, and cross-reacted with four additional targets—ABHD6, PAFAH2, PLA2G7, and PLA2G15.

ABHD4 = target: T3, ABHD4 (Homo sapiens, UniProt Q8TB40); test: ABPP-SILAC, PC3 cells treated in situ; type: cell-based; design: endogenous in cells; host or cells: PC3; conditions: 4 h in situ; for inhibition of ABHD4 in PC3 cells: FP-biotin
T3 sequence (Q8TB40 1-342): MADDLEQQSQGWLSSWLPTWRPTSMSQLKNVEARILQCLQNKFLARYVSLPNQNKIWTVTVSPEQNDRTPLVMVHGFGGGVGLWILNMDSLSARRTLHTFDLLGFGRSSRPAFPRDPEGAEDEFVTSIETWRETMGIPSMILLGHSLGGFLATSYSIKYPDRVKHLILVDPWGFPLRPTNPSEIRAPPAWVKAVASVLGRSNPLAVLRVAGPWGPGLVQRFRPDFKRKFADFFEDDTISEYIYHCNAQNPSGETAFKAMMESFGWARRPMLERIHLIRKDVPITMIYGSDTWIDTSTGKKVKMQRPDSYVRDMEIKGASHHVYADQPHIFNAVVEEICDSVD
Protocol: as §3, §4, §5

[2] = first value of the cell, read-out: hLYPLA1/2 in vitro potency (IC50): hLYPLA1
[3] = second value of the cell, read-out: hLYPLA1/2 in vitro potency (IC50): hLYPLA2

T1 sequence (O75608 whole entry): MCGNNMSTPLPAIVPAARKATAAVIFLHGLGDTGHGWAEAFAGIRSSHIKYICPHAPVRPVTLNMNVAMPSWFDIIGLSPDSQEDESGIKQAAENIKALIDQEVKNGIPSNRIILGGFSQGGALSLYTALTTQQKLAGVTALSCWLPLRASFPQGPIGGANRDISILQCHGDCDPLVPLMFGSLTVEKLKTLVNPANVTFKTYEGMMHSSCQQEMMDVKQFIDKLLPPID
T2 sequence (O95372 whole entry): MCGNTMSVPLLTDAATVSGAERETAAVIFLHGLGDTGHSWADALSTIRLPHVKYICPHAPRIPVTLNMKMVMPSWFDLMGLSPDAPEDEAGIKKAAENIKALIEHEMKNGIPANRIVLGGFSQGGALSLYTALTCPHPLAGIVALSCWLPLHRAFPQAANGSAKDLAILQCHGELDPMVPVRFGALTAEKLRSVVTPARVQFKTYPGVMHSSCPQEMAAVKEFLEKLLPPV

SMILES: O=C(ON1C(=O)C2CN(C(=O)N3CCOCC3)CCN2C1=O)N1CCC(CCc2ccc(Cl)cc2)CC1 (stereo not shown) [Compound 1, 7-(morpholine-4-carbonyl)-1,3-dioxohexahydroimidazo[1,5-a]pyrazin-2(3H)-yl 4-(4-chloro-phenethyl)piperidine-1-carboxylate]
- IC50 (human LYPLA1; HeLa cell lysates, FP-Rh, read-out: human LYPLA1 IC50 in vitro): 122 nM
- IC50 (human LYPLA2; HeLa cell lysates, FP-Rh, read-out: human LYPLA2 IC50 in vitro): 245 nM

SMILES: COc1ccc(N2CCN(C(=O)ON3C(=O)C4CN(CC5CCN(Cc6ccccc6)CC5)CCN4C3=O)CC2)cc1 (stereo not shown) [Compound 26, 7-((1-benzylpiperidin-4-yl)methyl)-1,3-dioxohexahydroimidazo[1,5-a]pyrazin-2(3H)-yl 4-(4-methoxyphenyl)piperazine-1-carboxylate]
- cross-reacting SHs of >40 quantified ([1]; 1 or 0.1 μM, PC3): ABHD6 and CPVL

SMILES: O=C(ON1C(=O)C2CN(Cc3ccc(Oc4ccccc4)cc3)CCN2C1=O)N1CCOCC1 (stereo not shown) [Compound 34, 1,3-dioxo-7-(4-phenoxybenzyl)hexahydroimidazo[1,5-a]pyrazin-2(3H)-yl morpholine-4-carboxylate]
- additional cross-reacting targets ([1]; 1 μM, PC3): ABHD6; also recorded: PAFAH2; also recorded: PLA2G7; also recorded: PLA2G15
- inhibition at 1 µM (ABHD4; PC-3, 1 μM, FP-biotin or Compound 39 probe): > 90%

SMILES: O=C(ON1C(=O)C2CN(Cc3ccc(Oc4ccccc4)cc3)CCN2C1=O)N1CCC(c2ccccc2)CC1 (stereo not shown) [Compound 38, 1,3-dioxo-7-(4-phenoxybenzyl)hexahydroimidazo[1,5-a]pyrazin-2(3H)-yl 4-phenylpiperidine-1-carboxylate]
- additional targets among 44 serine hydrolases ([1]; 0.5 μM, PC3, FP-biotin): LIPE and PLA2G7 and ABHD6 and CES2
- inhibition of ABHD4 in PC3 cells (ABHD4; 0.5 μM): inhibit both ABHD3 and ABHD4

Now from value to molecule, other results behind:

- inhibition of ABHD4 in PC3 cells (ABHD4; 1 μM): completely inhibited
SMILES: COc1ccc(N2CCN(C(=O)ON3C(=O)C4CN(Cc5ccc(Oc6ccccc6)cc5)CCN4C3=O)CC2)cc1 (stereo not shown) [Compound 37, 1,3-dioxo-7-(4-phenoxybenzyl)hexahydroimidazo[1,5-a]pyrazin-2(3H)-yl 4-(4-methoxyphenyl)piperazine-1-carboxylate]
- SHs inhibited in PC3 cells ([1]; 1 μM, Compound 39 probe): ABHD4; also recorded: ABHD6; also recorded: PLA2G7

- IC50 (human LYPLA1; [2]): 1750 nM
- IC50 (human LYPLA2; [3]): 1830 nM
SMILES: C#Cc1ccc(CCC2CCN(C(=O)ON3C(=O)[C@@H]4CN(C(=O)N5CCOCC5)CCN4C3=O)CC2)cc1 [Compound 48, (S)-7-(morpholine-4-carbonyl)-1,3-dioxo-hexahydroimidazo[1,5-a]pyrazin-2(3H)-yl 4-(4-ethynylphenethyl)piperidine-1-carboxylate]

- IC50 (human LYPLA1; [2]): 842 nM
- IC50 (human LYPLA2; [3]): 1430 nM
SMILES: C#Cc1ccc(CCC2CCN(C(=O)ON3C(=O)[C@H]4CN(C(=O)N5CCOCC5)CCN4C3=O)CC2)cc1 [Compound 49, (R)-7-(morpholine-4-carbonyl)-1,3-dioxo-hexahydroimidazo[1,5-a]pyrazin-2(3H)-yl 4-(4-ethynylphenethyl)piperidine-1-carboxylate]
